≈ marks a conversion by molar mass, not a printed value.
conditions: buffer; pH 7.4; 200.0 µM

Row | Structure (SMILES) | solubility kinetic
1 | O=C(Nc1ccc2c(c1)Cc1ccccc1-2)c1cccnc1 | 1.4 µg/mL (≈ 4.89 µM)
2 | CCOCCCNC(=O)c1cc2c(=O)n(CC)c3ccccc3c2s1 | 4.8 µg/mL (≈ 13.4 µM)
3 | COc1ccc(CC(=O)OCC(=O)N2CCCC(C)C2)cc1 (centres undefined) | > 45.8 µg/mL
4 | Cc1ccccc1NC(=O)CCN1CCCC1.Cl | > 40.3 µg/mL
5 | C=CCN1CCN(C(=O)c2cc3c(s2)CCCC3)CC1 | > 43.6 µg/mL
6 | Cc1nc(NC(=O)C2CC2)sc1C(=O)Nc1ccccc1 | 3.8 µg/mL (≈ 12.6 µM)
7 | Cc1ccc(SCc2ccc(C(=O)N3CCCCC3)cc2)cc1 | 6.1 µg/mL (≈ 18.7 µM)
8 | CCOC(=O)CNC(=O)CSc1nccn1Cc1ccco1 | > 48.5 µg/mL
9 | O=C(Nc1nc2ccccc2n1CCN1CCOCC1)c1ccc(Cl)cc1 | 0.9 µg/mL (≈ 2.34 µM)
10 | COc1ccccc1OCc1nc2ccccc2n1C | 37.5 µg/mL (≈ 140 µM)
11 | O=C(COC(=O)C1CC2CCCC(C1)C2=O)Nc1cccc(F)c1 (centres undefined) | > 50 µg/mL
12 | O=C(c1ccncc1)c1ccc(NC(=O)c2cccs2)cc1 | 45.9 µg/mL (≈ 149 µM)
13 | COc1cc(C)c(S(=O)(=O)NCc2cccnc2)cc1C | > 46 µg/mL
14 | CC(NS(=O)(=O)c1ccc2c(c1)CC(=O)N2C)c1ccccc1 (centres undefined) | > 49.6 µg/mL
15 | O=C(CN1CCCC1)Nc1ccc(Cl)cc1C(F)(F)F | 22.3 µg/mL (≈ 72.7 µM)
16 | CCOC(=O)c1cnc2c(ccc3ccccc32)c1Cl | < 0.6 µg/mL
17 | Cc1ccc(C2=N/C(=C\c3ccc(F)cc3)C(=O)N2)cc1 | 0.7 µg/mL (≈ 2.5 µM)
18 | O=C(NC1CCSC1=O)C1CC(=O)N(c2ccc(F)cc2)C1 (centres undefined) | 46.2 µg/mL (≈ 143 µM)
19 | O=C(Nc1cccnc1)C1=NN(C2CCS(=O)(=O)C2)C(=O)CC1 (centres undefined) | > 50.5 µg/mL
20 | Cc1ccccc1C(=O)NCCCn1ccnc1 | > 36.5 µg/mL

Row | Structure (SMILES) | solubility kinetic
21 | Cc1ccc(C)c(S(=O)(=O)NCc2ccc3c(c2)OCO3)c1 | 47.7 µg/mL (≈ 149 µM)
22 | CCOc1ccccc1NC(=O)CCCc1ccc(OC)c(C)c1 | 8.2 µg/mL (≈ 25 µM)
23 | O=c1[nH]c(=S)[nH]c2sc3c(c12)CCCCCC3 | 26.2 µg/mL (≈ 98.4 µM)
24 | CCCCN(CC)Cc1c(C)[nH]c2c(ccc3ccccc32)c1=O | > 48.4 µg/mL
25 | O=C(Nc1ccc(Nc2ccccc2)cc1)c1cccc(F)c1 | 0.8 µg/mL (≈ 2.61 µM)
26 | CNc1snc(C)c1C(=O)OC(C)C(=O)Nc1ccccc1 (centres undefined) | 34.5 µg/mL (≈ 108 µM)
27 | CC(C)CC(=O)Nc1ccccc1N1CCN(c2ccccc2)CC1 | 1.6 µg/mL (≈ 4.74 µM)
28 | O=C(Nc1ccnc(-c2ccncc2)n1)c1ccc(F)cc1 | 0.4 µg/mL (≈ 1.36 µM)
29 | Cc1cccc(OCCSc2nc3ccccc3n2CCC(=O)O)c1 | 53.4 µg/mL (≈ 150 µM)
30 | CC(=O)c1c(C)[nH]c(C(=O)Nc2cccc(S(=O)(=O)N3CCCC3)c2)c1C | 7 µg/mL (≈ 18 µM)
31 | CC(NC(=O)c1ccco1)c1nc(-c2ccc(C(C)(C)C)cc2)no1 (centres undefined) | 0.9 µg/mL (≈ 2.65 µM)
32 | COCC(C)NC(=S)N1CCN(c2ccccc2Cl)CC1 (centres undefined) | 48.5 µg/mL (≈ 148 µM)
33 | CC(=O)c1cccc(NC(=O)c2cnccn2)c1 | > 36.2 µg/mL
34 | O=C(Nc1ccc2c(c1)OCO2)Nc1ccccc1F | 2.7 µg/mL (≈ 9.84 µM)
35 | Cc1cccc(Cl)c1OCCCn1ccnc1.O=C(O)C(=O)O | 45.4 µg/mL
36 | COc1cccc(OCCNS(=O)(=O)c2ccccc2[N+](=O)[O-])c1 | 47.2 µg/mL (≈ 134 µM)
37 | O=C1CSC2(N1)C1CC3CC(C1)CC2C3 (centres undefined) | 12.5 µg/mL (≈ 56 µM)
38 | Cc1ccccc1C(=O)NCC(=O)N1CCN(C/C=C/c2ccccc2)CC1 | > 56.6 µg/mL
39 | Cc1cccc(NC2=NCCCS2)c1 | > 30.9 µg/mL
40 | COc1ccc(CC(C)Nc2ccccc2F)cc1 (centres undefined) | < 0.6 µg/mL

Row | Structure (SMILES) | solubility kinetic
41 | CCNS(=O)(=O)c1ccc(NC(=S)N2CCc3ccccc32)cc1 | 1.2 µg/mL (≈ 3.32 µM)
42 | O=[N+]([O-])c1ccc(NS(=O)(=O)c2cccc3cccnc23)cc1 | 1.9 µg/mL (≈ 5.77 µM)
43 | Cc1ccc(C)c(C(=O)CCC(=O)Nc2ccc(N3CCN(C)CC3)cc2C)c1 | 55.8 µg/mL (≈ 142 µM)
44 | N#Cc1c(N2CCSCC2)nsc1-c1ccccc1Cl | 3.4 µg/mL (≈ 10.6 µM)
45 | CC(C)CNS(=O)(=O)c1ccc(CCC(=O)N2CCCC2)cc1 | > 50.8 µg/mL
46 | Cc1ccc(C(=O)O/N=C(\N)c2ccccn2)c(C)c1 | > 40.4 µg/mL
47 | O=c1[nH]c(NCCO)nnc1Cc1ccc(Cl)cc1 | > 42.1 µg/mL
48 | COc1ccc(NC(=O)CN2C(=O)NC3(CCCC3)C2=O)cc1 | 40.1 µg/mL (≈ 126 µM)
49 | Cl.O=C(NCCN1CCCC1)C(c1ccccc1)c1ccccc1 | 48.9 µg/mL
50 | O=C(Cc1ccc([N+](=O)[O-])cc1)c1ccc(O)cc1O | > 41 µg/mL
51 | Cc1nc(C)c(-c2csc(Nc3ccccn3)n2)s1 | 10.2 µg/mL (≈ 35.4 µM)
52 | N=c1oc2ccccc2cc1C(=O)Nc1ccccc1 | 0.6 µg/mL (≈ 2.27 µM)
53 | O=[N+]([O-])c1c(NCCO)cc(N2CCCCC2)c2nonc12 | 38.6 µg/mL (≈ 126 µM)
54 | CC(SCC(=O)O)c1nc2ccccc2[nH]1 (centres undefined) | > 35.4 µg/mL
55 | Nc1nc2nonc2nc1N | > 22.8 µg/mL
56 | COc1ccc(C(=O)NCCCNC(=O)c2cc3ccccc3[nH]2)cc1OC | > 57.2 µg/mL
57 | O=C(c1ccccc1Cl)N1CCC(n2cccc2)CC1 | 42.2 µg/mL (≈ 146 µM)
58 | Cc1[nH]c2ccccc2c1C(C[N+](=O)[O-])c1cccc(O)c1 (centres undefined) | 40.1 µg/mL (≈ 135 µM)
59 | O=C(Cc1cccs1)NCc1cc(Cl)cc(Cl)c1 | 34.3 µg/mL (≈ 114 µM)

Source: PubChem BioAssay AID1996
